Assay [1] has as its target T1, HCV polymerase (NS5B) type 1b (Hepatitis C virus genotype 1b, UniProt P26663).
T1 construct: a region encoding NS5B (J Virol 1991 March, 65(3), 1105-13, 544 amino acids after deletion of 47 amino acids on the C-terminal); 6xHis (C); made in house; host or cells: Escherichia coli
The assay is described as follows: Assay of enzyme (HCV polymerase) inhibitory activity, type 1b enzyme. The class given is biochemical, HCV BK strain (type 1b). To be noted: HCV polymerase inhibitory activity IC50, 1b, type 1b enzyme. The method, boiled down: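 Polymerase activity was followed as radiolabelled UTP incorporation by E. coli-expressed, His-tagged NS5B of HCV type 1b lacking its last 47 residues. Conditions: 2 μM UTP, 50 μM other NTPs, Mg2+ buffer at pH 7.5, 25 °C for 60 min. Inhibition relative to compound-free reactions gave IC50.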

For assay [2], the target named is T2, HCV polymerase (NS5B) type 1a (Hepatitis C virus genotype 1a, UniProt P26664).
T2 construct: made in house; host or cells: Escherichia coli (by the 'similar method' of the 1b enzyme)
The assay is described as follows: Assay of enzyme (HCV polymerase) inhibitory activity, type 1a enzyme. Type of assay: biochemical, HCV type 1a (cloned from the blood of patients). The following applies: HCV polymerase inhibitory activity IC50, 1a, type 1a enzyme. In short, it runs like this: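 IC50 values derive from radioactivity of newly synthesized RNA with versus without test compound. The enzyme was C-terminally truncated type 1a NS5B, 1.5 μg/ml, run 60 min at 25° C with 3H-UTP-labelled nucleotides.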

Take `CC(=O)N1CCN(S(=O)(=O)c2ccc(C(C)C)cc2)[C@H](C(=O)NCc2ccc(C(F)(F)F)cc2)C1` [Example 1117, (S)-4-acetyl-1-(4-isopropyl-benzenesulfonyl)-piperazine-2-carboxylic acid 4-trifluoromethyl-benzylamide]: the IC50 in assay [1] and in assay [2] was above 1 µM in each case.

In the case of `O=C(O)Cn1ncc2sc(N3CCN(S(=O)(=O)c4ccc(OC(F)(F)F)cc4)[C@@H](C(=O)NCc4ccc(OC(F)F)c(F)c4)C3)nc2c1=O` [Example 1121], the IC50 in assay [1] and in assay [2] was below 0.1 µM in each case.

As to `O=C(O)c1cnc(N2CCN(S(=O)(=O)c3ccc(C(F)(F)F)cc3)[C@@H](C(=O)NCc3ccc(OC(F)F)c(F)c3)C2)cn1` [Example 1122], the IC50 in assay [1] and in assay [2] was below 0.1 µM each time.

As for `NC(=O)c1cncc2sc(N3CCN(S(=O)(=O)c4ccc(OC(F)(F)F)cc4)[C@@H](C(=O)NCc4ccc(OC(F)(F)F)cc4)C3)nc12` [Example 1123], the IC50 in assay [1] and in assay [2] was below 0.1 µM each time.

What is called IC50 is the concentration that gives 50% inhibition. Read a low IC50 as greater potency.

The values are drawn from patent US8017612B2, “Piperazine compound and use thereof as a HCV polymerase inhibitor” (priority 2006, dated 2011).
